In ChEMBL document CHEMBL1201862, “PubChem BioAssay data set” (2004):
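Each compound was tested at five concentrations against cells in 96-well plates for 48 hours. GI50 marks 50% less growth.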 Active and inactive are the calls of the source. No stated cut-off is given here; in the data, active = GI50 up to about 1.1 µM and inactive = higher.

Key:
Test in all cases: NCI tumour cell line growth inhibition, 48 h
[1] = system: CAKI-1
[2] = system: COLO 205
[3] = system: DU-145
[4] = system: HT-29
[5] = system: Hs-578T
[6] = system: IGROV-1
[7] = system: K562
[8] = system: KM12
[9] = system: MCF7
[10] = system: MDA-MB-231
[11] = system: Malme-3M
[12] = system: NCI-H23
[13] = system: NCI-H522
[14] = system: NCI/ADR-RES
[15] = system: OVCAR-8
[16] = system: RXF 393
[17] = system: SF-295
[18] = system: SK-MEL-28
[19] = system: UACC-257
[20] = system: T47D

SMILES	GI50 [1]	GI50 [2]	GI50 [3]	GI50 [4]	GI50 [5]	GI50 [6]	GI50 [7]	GI50 [8]	GI50 [9]	GI50 [10]	GI50 [11]	GI50 [12]	GI50 [13]	GI50 [14]	GI50 [15]	GI50 [16]	GI50 [17]	GI50 [18]	GI50 [19]	GI50 [20]
CCN(CC)C(=S)N/N=C(/c1ccccc1)c1ccccn1	0.805 µM (active)	0.0275 µM (active)	0.402 µM (active)	< 0.0246 µM (active)	> 37.6 µM (inactive)	0.195 µM (active)	0.185 µM (active)	0.0942 µM (active)	0.0867 µM (active)	0.0265 µM (active)	0.929 µM (active)	0.267 µM (active)	0.0984 µM (active)	0.27 µM (active)	0.0362 µM (active)	0.277 µM (active)	0.342 µM (active)	0.767 µM (active)	0.107 µM (active)	
Cc1ccc(N2C3=C(CC4=C2CC(C)(C)CC4=O)C(=O)CC(C)(C)C3)cc1	> 100 µM (inactive)	> 100 µM (inactive)	> 100 µM (inactive)	> 100 µM (inactive)	20.6 µM (inactive)	> 100 µM (inactive)	> 100 µM (inactive)	> 100 µM (inactive)	> 100 µM (inactive)	> 100 µM (inactive)	> 100 µM (inactive)	> 100 µM (inactive)		> 100 µM (inactive)	> 100 µM (inactive)	> 100 µM (inactive)	> 100 µM (inactive)	> 100 µM (inactive)	> 100 µM (inactive)	
OC[C@H]1O[C@@H](Oc2cc(O)cc(/C=C/c3ccc(O)cc3)c2)[C@H](O)[C@@H](O)[C@@H]1O [PICEID]	> 100 µM (inactive)		> 100 µM (inactive)	> 100 µM (inactive)	> 100 µM (inactive)	> 100 µM (inactive)	> 100 µM (inactive)	> 100 µM (inactive)	> 100 µM (inactive)	> 100 µM (inactive)			> 100 µM (inactive)	> 100 µM (inactive)	> 100 µM (inactive)	> 100 µM (inactive)	> 100 µM (inactive)	> 100 µM (inactive)	> 100 µM (inactive)	
CN1CCN(/C(N)=C(\C#N)C(=O)Nc2ccc(Cl)cc2)CC1	79.8 µM (inactive)	18.7 µM (inactive)	79.3 µM (inactive)	> 100 µM (inactive)		99.1 µM (inactive)	23 µM (inactive)	59 µM (inactive)	68.4 µM (inactive)			67 µM (inactive)		87.9 µM (inactive)	> 100 µM (inactive)		75.7 µM (inactive)	46.6 µM (inactive)	59 µM (inactive)	> 100 µM (inactive)
COc1cccc2c(=O)c3c(O)c4cc(N(C)C)ccc4c(OC(C)=O)c3oc12	5.24 µM (inactive)	4.1 µM (inactive)	17.8 µM (inactive)	14.1 µM (inactive)	14.3 µM (inactive)		15.6 µM (inactive)	13 µM (inactive)	14.5 µM (inactive)	11.4 µM (inactive)	2.56 µM (inactive)	17.2 µM (inactive)		21.7 µM (inactive)	15.7 µM (inactive)	4.72 µM (inactive)	25.1 µM (inactive)	10.5 µM (inactive)	12.9 µM (inactive)	
O=C(/C=C/c1ccccc1)CSc1nc[nH]n1	> 100 µM (inactive)	> 100 µM (inactive)	> 100 µM (inactive)	44.4 µM (inactive)		> 100 µM (inactive)	46.8 µM (inactive)	> 100 µM (inactive)	36.4 µM (inactive)		> 100 µM (inactive)	> 100 µM (inactive)	30.5 µM (inactive)	> 100 µM (inactive)	> 100 µM (inactive)	> 100 µM (inactive)	81.1 µM (inactive)	56.9 µM (inactive)	> 100 µM (inactive)	
Nc1ccc2c(c1)Nc1c3ccccc3nc3cccc-2c13	1.54 µM (inactive)	1.34 µM (inactive)	1.59 µM (inactive)	1.18 µM (inactive)	2.03 µM (inactive)	1.25 µM (inactive)	0.416 µM (active)	1.32 µM (inactive)	0.794 µM (active)	1.35 µM (inactive)	1.85 µM (inactive)	1.48 µM (inactive)	1.55 µM (inactive)	1.66 µM (inactive)		1.64 µM (inactive)	1.29 µM (inactive)	1.99 µM (inactive)	2 µM (inactive)	
CCCCOCn1c(=O)[nH]c(=O)c2ccccc21	> 100 µM (inactive)	> 100 µM (inactive)	> 100 µM (inactive)	40.3 µM (inactive)		49 µM (inactive)	> 100 µM (inactive)	> 100 µM (inactive)	68.9 µM (inactive)	33.3 µM (inactive)				22.8 µM (inactive)	37.5 µM (inactive)	48.2 µM (inactive)	> 100 µM (inactive)	> 100 µM (inactive)	78.7 µM (inactive)	
COc1cc(Br)cc2cc(-c3cn4c(n3)sc3ccccc34)c(=O)oc12	22.9 µM (inactive)	38.7 µM (inactive)	17.7 µM (inactive)	29.5 µM (inactive)	15.6 µM (inactive)	14.7 µM (inactive)	13.6 µM (inactive)	30.4 µM (inactive)	35.6 µM (inactive)	21.2 µM (inactive)		21.2 µM (inactive)	14.5 µM (inactive)	30.7 µM (inactive)	28.6 µM (inactive)		19.8 µM (inactive)		38.5 µM (inactive)	
C(/COc1cccnc1)=N\NC1=NCCN1	> 100 µM (inactive)	> 100 µM (inactive)		> 100 µM (inactive)		> 100 µM (inactive)	> 100 µM (inactive)	> 100 µM (inactive)			> 100 µM (inactive)	> 100 µM (inactive)	> 100 µM (inactive)		> 100 µM (inactive)	> 100 µM (inactive)	> 100 µM (inactive)	> 100 µM (inactive)	> 100 µM (inactive)	
CS(=O)(=O)OCCN1CCN(C(=O)c2cccc3c(Nc4ccc(S(N)(=O)=O)cc4)c4ccccc4nc23)CC1	> 100 µM (inactive)	> 50.8 µM (inactive)		> 100 µM (inactive)		> 100 µM (inactive)	> 51.5 µM (inactive)	> 100 µM (inactive)			> 100 µM (inactive)	> 100 µM (inactive)	> 100 µM (inactive)		> 100 µM (inactive)	> 55.2 µM (inactive)	> 100 µM (inactive)	> 100 µM (inactive)	> 66.7 µM (inactive)	
COc1ccc2c(C)cc(=O)oc2c1OC		> 100 µM (inactive)	> 100 µM (inactive)	> 100 µM (inactive)	> 100 µM (inactive)	> 100 µM (inactive)	> 100 µM (inactive)	> 100 µM (inactive)	> 100 µM (inactive)	> 100 µM (inactive)	> 100 µM (inactive)	> 100 µM (inactive)		> 100 µM (inactive)	> 100 µM (inactive)		> 100 µM (inactive)	> 100 µM (inactive)	> 100 µM (inactive)	
